Assay results published in US20240279302A1, “OLFACTORY RECEPTOR EXPRESSING METHOD AND RESPONSE MEASUREMENT METHOD” (Kao Corporation, priority 2021, published 2024).

Legend:
Assay in all cases: Luciferase assay, sulfur compounds
Format in all cases: cell-based
consensus OR2T5 = biological target: T1, consensus OR2T5 (Homo sapiens, UniProt Q6IEZ7, A76M/C55S/F147L/I190K/I217V/K41M/L14S/L223S/L224F/L249M/L87M/M19V/M302T/M75V/R23S/R24Q/R6W/S169T/S32C/S61T/T121A/T189M/V229I/V48I/V96I/W176R)
T1 construct: expressed in transfected cells; host or cells: HEK293
T1 sequence (Q6IEZ7 with tags, fused parts or gaps R6W/L14S/M19V/R23S/R24Q/S32C/K41M/V48I/C55S/S61T/M75V/A76M/L87M/V96I/T121A/F147L/S169T/W176R/T189M/I190K/I217V/L223S/L224F/V229I/L249M/M302T): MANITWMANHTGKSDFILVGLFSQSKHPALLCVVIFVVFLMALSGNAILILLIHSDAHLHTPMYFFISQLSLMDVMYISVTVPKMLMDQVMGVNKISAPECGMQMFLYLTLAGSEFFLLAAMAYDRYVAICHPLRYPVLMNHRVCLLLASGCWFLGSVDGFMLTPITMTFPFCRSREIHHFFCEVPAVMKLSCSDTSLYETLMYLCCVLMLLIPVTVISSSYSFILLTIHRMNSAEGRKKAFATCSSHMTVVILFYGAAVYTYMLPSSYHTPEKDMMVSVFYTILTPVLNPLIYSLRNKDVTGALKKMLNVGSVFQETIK

consensus OR12D3 = biological target: T2, consensus OR12D3 (Homo sapiens, UniProt Q9UGF7, A145V/C216Y/C85S/G168H/G17S/G27V/H163R/I149T/M273V/M276I/M298L/M46I/M7V/S165N/S188G/S42A/S70C/S86T/V219I/V48I/V84L/Y177C); settings: in the presence of a copper ion
T2 construct: expressed in transfected cells; host or cells: HEK293
T2 sequence (Q9UGF7 1-315 M7V/G17S/G27V/S42A/M46I/V48I/S70C/V84L/C85S/S86T/A145V/I149T/H163R/S165N/G168H/Y177C/S188G/C216Y/V219I/M273V/M276I/M298L): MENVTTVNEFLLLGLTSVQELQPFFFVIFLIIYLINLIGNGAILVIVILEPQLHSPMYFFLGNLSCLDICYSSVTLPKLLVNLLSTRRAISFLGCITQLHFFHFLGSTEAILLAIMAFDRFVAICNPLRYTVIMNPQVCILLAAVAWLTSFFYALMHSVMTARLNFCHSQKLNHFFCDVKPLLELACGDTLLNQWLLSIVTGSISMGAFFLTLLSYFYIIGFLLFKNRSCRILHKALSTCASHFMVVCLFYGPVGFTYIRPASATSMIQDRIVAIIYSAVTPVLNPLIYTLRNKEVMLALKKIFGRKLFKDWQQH

consensus OR4K17 = biological target: T3, consensus OR4K17 (Homo sapiens, UniProt Q8NGC6, A163V/E24Q/F120Y/F158L/G263S/I192T/I205M/I296T/I46V/K226R/L86V/P230S/S297A/V197I/V23I/V81M/V91T)
T3 construct: expressed in transfected cells; host or cells: HEK293
T3 sequence (Q8NGC6 with tags, fused parts or gaps V23I/E24Q/I46V/V81M/L86V/V91T/F120Y/F158L/A163V/I192T/V197I/I205M/K226R/P230S/G263S/I296T/S297A): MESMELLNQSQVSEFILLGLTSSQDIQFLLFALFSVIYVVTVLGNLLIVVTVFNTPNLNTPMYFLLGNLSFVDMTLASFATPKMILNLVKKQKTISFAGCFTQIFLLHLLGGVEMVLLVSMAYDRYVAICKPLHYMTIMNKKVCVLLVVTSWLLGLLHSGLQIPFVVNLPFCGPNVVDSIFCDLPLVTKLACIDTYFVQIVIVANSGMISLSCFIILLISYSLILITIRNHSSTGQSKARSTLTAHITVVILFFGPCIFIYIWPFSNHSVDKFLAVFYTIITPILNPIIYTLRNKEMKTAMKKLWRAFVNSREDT

consensus OR2T27 = biological target: T4, consensus OR2T27 (Homo sapiens, UniProt Q8NH04, A21T/G216A/G235R/H131R/I13V/I140V/K45M/L36V/R69M/S88G/T37I/V304A/V305L/V43T/V8M/W142L); settings: in the presence of a copper ion
T4 construct: expressed in transfected cells; host or cells: HEK293
T4 sequence (Q8NH04 with tags, fused parts or gaps with the stated changes): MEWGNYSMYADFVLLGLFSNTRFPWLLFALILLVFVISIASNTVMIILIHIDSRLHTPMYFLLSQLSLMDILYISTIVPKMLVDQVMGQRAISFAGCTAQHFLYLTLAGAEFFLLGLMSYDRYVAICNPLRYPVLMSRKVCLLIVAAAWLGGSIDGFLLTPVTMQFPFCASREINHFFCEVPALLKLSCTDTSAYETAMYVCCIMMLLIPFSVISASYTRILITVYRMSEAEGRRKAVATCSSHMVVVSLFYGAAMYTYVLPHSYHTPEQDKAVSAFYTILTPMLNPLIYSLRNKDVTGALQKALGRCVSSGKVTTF

consensus OR6B3 = biological target: T5, consensus OR6B3 (Homo sapiens, UniProt Q8NGW1, A219G/C161Y/C234R/F239S/F305L/G10S/I281L/L135I/L142V/M157V/M215V/P138T/Q89R/R8K/S64G/T78I/V136M/V15L/V166A/V250I)
T5 construct: expressed in transfected cells; host or cells: HEK293
T5 sequence (Q8NGW1 with tags, fused parts or gaps R8K/G10S/V15L/S64G/T78I/Q89R/L135I/V136M/P138T/L142V/M157V/C161Y/V166A/M215V/A219G/C234R/F239S/V250I/I281L/F305L): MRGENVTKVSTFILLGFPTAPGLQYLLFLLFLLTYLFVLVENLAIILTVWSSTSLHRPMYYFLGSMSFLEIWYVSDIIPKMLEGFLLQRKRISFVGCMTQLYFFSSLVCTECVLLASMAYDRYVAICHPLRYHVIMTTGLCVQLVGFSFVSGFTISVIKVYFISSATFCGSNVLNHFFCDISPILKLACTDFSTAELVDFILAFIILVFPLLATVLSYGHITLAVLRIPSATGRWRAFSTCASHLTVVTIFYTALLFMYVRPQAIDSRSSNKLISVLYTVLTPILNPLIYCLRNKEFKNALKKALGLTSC

[1] = in the presence of a copper ion

SMILES	EC50 (consensus OR2T5; consensus OR2T5, 30 μM CuCl2) [µM]	dose dependence of the response of consensus OR2T5 (consensus OR2T5; [1])	response of consensus OR2T5 (consensus OR2T5; [1])	response of consensus OR12D3 (consensus OR12D3)	response of consensus OR4K17 (consensus OR4K17; [1])	response of consensus OR2T27 (consensus OR2T27)	response of consensus OR6B3 (consensus OR6B3; [1])	EC50 (consensus OR4K17) [µM]	dose dependence of the response of consensus OR4K17 (consensus OR4K17; [1])	EC50 (consensus OR6B3) [µM]	dose dependence of the response of consensus OR6B3 (consensus OR6B3; [1])
CS [methyl mercaptan]	217	dose-dependent response	responded	responded	responded	responded	responded	–	–	–	–
CSSSC [dimethyl trisulfide]	–	–	–	responded	–	–	responded	–	–	–	–
CSSC [dimethyl disulfide]	–	–	responded	responded	responded	responded	responded	568	dose-dependent response	1600	dose-dependent response
